Source: patent US6413529B1, “Antimicrobial wipes which provide improved residual benefit versus gram negative bacteria” (The Procter & Gamble Company, priority 1999, dated 2002)

Test system: Microtox Acute Toxicity Reagent (Vibrio fischerio)
Test: Microtox Response Test (Microtox Response Index of anionic surfactant)
Format: cell-based
Details: pure anionic surfactant; EC50 for 50% decrease of bioluminescence, 5 minutes
Excerpt: The biological activity/mildness of a pure surfactant can measured directly via a Microtox Response Test hereinafter described in the Analytical Methods section and can be reported as a Microtox Response Index. By “pure surfactant” it is meant a chemical composition consisting essentially of a single surfactant entity, wherein the entity has essentially one chain length, head group and salt counter ion. From a standpoint of high biological activity, preferred anionic surfactants of the antimicrobial cleansing compositions of the present invention have a Microtox Response Index of less that about 150, more preferably less than about 100 and most preferably less than about 50. […]
For surfactant compositions which are mixtures of surfactants rather than pure surfactants (this includes “commercial grade” surfactants which typically comprise mixtures of entities with different chain lengths and potentially have higher levels of impurities), the Microtox Response Index for any individual surfactant component is not a reliable measurement of biological activity or mildness. In the case of mixtures, the Microtox Index of each individual component can be determined and the weighted average used as the Index for the mixture if all the individual components of the mixture are known. […]

Row | Compound | Microtox Index
1 | CCCCCCCCCCCCOS(=O)(=O)O.N [ammonium lauryl sulfate] | 1.0 ppm
2 | ammonium laureth-3 sulfate | 120 ppm
